Common to all, as to type: in vivo
The subject of assay [1] is larvae of the southern green stink bug (Nezara viridula). In words: Nezara viridula spray test. The following applies: 96 h, after 4 days, barley plants. In a few lines: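 Compound in acetone/DMF was diluted in water with 1000 ppm alkylarylpolyglycol ether emulsifier. Barley plants were sprayed with it, then infested with Nezara viridula larvae. Mortality % was scored after 4 days (100% = all killed).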

The test system of assay [2] is brown planthopper (Nilaparvata lugens). Description: Nilaparvata lugens spray test. The following applies: 96 h, after 4 days, rice plants. The procedure:
Nilaparvata lugens—Spray Test • Solvent: 78.0 parts by weight of acetone • 1.5 parts by weight of dimethylformamide • Emulsifier: alkylarylpolyglycol ether
To produce a suitable preparation of active compound, 1 part by weight of active compound is mixed with the stated amount of solvents and is diluted with water, containing an emulsifier concentration of 1000 ppm, to the desired concentration. Further test concentrations are prepared by dilution with emulsifier containing water.
Rice plants (Oryza sativa) are sprayed with a preparation of the active ingredient of the desired concentration and the plants are infested with the brown planthopper (Nilaparvata lugens).
After 4 days mortality in % is determined. 100% means all planthoppers have been killed and 0% means none of the planthoppers have been killed.

Assay [3] relates to adult engorged female ticks (Rhipicephalus microplus). In words: Rhipicephalus (Boophilus) microplus injection test. The conditions noted are these: 168 h, egg deposition monitored after 7 days, read-out: efficacy (infertile eggs); for pest or weed control at 4 µg/tick: 4 μg/tick injected; for pest or weed control at 20 µg/tick: 20 μg/tick injected. In outline: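 Five adult engorged female ticks each injected with 1 μL of DMSO compound solution into the abdomen, then kept in a climate chamber. Fertile egg deposition assessed after 7 days, with hatching followed to about 42 days; efficacy 100% means all eggs infertile, 0% all fertile.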

Assay [4] has as its system larvae of the banded cucumber beetle (Diabrotica balteata). Description: Diabrotica balteata spray test. The following applies: 168 h, after 7 days, wheat seeds, read-out: efficacy (seedling growth); for pest or weed control at 160 µg/disc, 500 g/ha: 500 g/ha (=160 μg/well); for pest or weed control at 32 µg/disc, 100 g/ha: 100 g/ha (=32 μg/well). In outline:
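Germinated wheat seeds on agar (5 per well) were sprayed with compound formulated in acetone/DMF and diluted in water with 1000 ppm emulsifier. Each unit was then infested with 10–20 larvae. Efficacy % was scored after 7 days as seedling growth relative to an untreated, uninfested control (100% = normal growth).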

The test system of assay [5] is fall armyworm larvae (Spodoptera frugiperda). In words: Spodoptera frugiperda spray test. The following applies: in Zea mays, 168 h. In outline: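 Maize leaf sections were sprayed with compound in acetone/dimethylformamide diluted in water with 1000 ppm emulsifier, dried, then infested with larvae. Mortality in % was scored after 7 days, 100% meaning all caterpillars killed.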

Assay [6] deals with adult flies Musca domestica strain WHO-N. In words: Musca domestica test (MUSCDO surface treatment & contact assay). The conditions noted are these: surface concentration 20 mg/m^2, 30 minutes exposure, 24 hours after contact, read-out: efficacy (mortality). In outline:
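Compound dissolved in acetone (2 mg/ml) with 2000 ppm rapeseed oil methyl ester and dried onto glazed tiles. Adult WHO-N strain flies were held on the treated surface for 30 minutes, with % mortality scored 24 hours after contact.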

Assay [7] concerns adult cat fleas (Ctenocephalides felis). Description: Ctenocephalides felis in-vitro contact test, adult cat flea. The following applies: 5 μg/cm^2 (=500 g/ha), after 48 hours, read-out: efficacy (fleas dead or moribund). In a few lines: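 Compound in acetone coated onto inner walls of glass tubes (900 ppm solution giving 5 μg/cm^2); after drying, 5-10 adult fleas added and kept at room temperature. At 48 h, fleas placed on 45-50 °C plate ≤5 min; immotile or uncoordinated ones scored dead/moribund; efficacy as % dead/moribund.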

Assay [8] relates to adult unfed cat fleas (Ctenocephalides felis). In words: Ctenocephalides felis oral test. The conditions noted are these: 48 h, 100 ppm in cattle blood, after 2 days. The procedure:
Ctenocephalides felis—Oral Test
• Solvent: dimethyl sulfoxide
To produce a suitable preparation of active compound, 10 mg of active compound are dissolved in 0.5 mL solvent, and the concentrate is diluted with cattle blood to the desired concentration.
Approximately 20 adult unfed cat fleas (Ctenocephalides felts) are placed in flea chambers. The blood chamber, sealed with parafilm on the bottom, are filled with cattle blood supplied with compound solution and placed on the gauze covered top of the flea chamber, so that the fleas are able to suck the blood. The blood chamber is heated to 37° C. whereas the flea chamber is kept at room temperature.
After 2 days mortality in % is determined. 100% means all the fleas have been killed; 0% means none of the fleas have been killed.

Assay [9] has as its system Rhipicephalus (Boophilus) microplus larvae (strain Parkhurst, resistant against synthetic pyrethroids). Description: Rhipicephalus (Boophilus) microplus in-vitro contact test, larval cattle tick. The conditions noted are these: 5 μg/cm^2 (=500 g/ha), after 48 hours, read-out: efficacy (larvae dead or moribund). In a few lines: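 Acetone solutions coated onto glass tube walls, 900 ppm giving 5 μg/cm^2; 20–50 larvae per tube after solvent evaporation. Incubated 48 h at 27 °C, 85% relative humidity; efficacy from negative geotaxis, 100% meaning all larvae dead or moribund.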

Assay [10] has as its system green peach aphid (Myzus persicae). In words: Myzus persicae spray test. The conditions noted are these: foliar, 120 h, after 5 days, Chinese cabbage leaf disks. In a few lines: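 Chinese cabbage leaf disks infested with all aphid instars were sprayed with compound in acetone/DMF, diluted in water with 1000 ppm alkylarylpolyglycol ether emulsifier. Mortality (%) scored after 5 days, 100% meaning all aphids killed.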

The structures appear in SMILES notation.

Take `Cc1cc(OC2CCCC2)cc(C(=O)N[C@@H](C)c2ncnn2-c2ccc(C#N)cn2)c1` [Example I-4, N-{(1S)-1-[1-(5-Cyanopyridin-2-yl)-1H-1,2,4-triazol-5-yl]ethyl}-3-(cyclopentyloxy)-5-methylbenzamide]: the mortality at 100 g/ha in assay [1] was 100%. In [2], the mortality at 100 g/ha amounted to 100%. Further, in [3], the pest or weed control at 4 µg/tick stood at 100% and the pest or weed control at 20 µg/tick worked out at 100%. Besides, the pest or weed control at 160 µg/disc, 500 g/ha in [4] came to 100%.
Consider `C[C@H](NC(=O)c1cc(Cl)cc(C(C)(C)C#N)c1)c1nc(C2CC2)nn1-c1ccc(C#N)cn1` [Example I-38], for which the mortality at 100 g/ha turned out to be 90% in assay [1] and 100% in [5]. Moreover, the mortality at 500 g/ha in [1] and in assay [2] was 100% each time. For the same compound, in [6], the mortality at 20 mg/m2 is 80 to 100%. For the same compound, in assay [4], the pest or weed control at 32 µg/disc, 100 g/ha was found to be 100%.
Consider `Cc1cc(OC2COC2)cc(C(=O)N[C@@H](C)c2ncnn2-c2ccc(C#N)cn2)c1` [Example I-6, N-{(1S)-1-[1-(5-Cyanopyridin-2-yl)-1H-1,2,4-triazol-5-yl]ethyl}-3-methyl-5-(oxetan-3-yloxy)benzamide], for which the pest or weed control at 5 µg/cm2, 5 µg/cm2 in [7] is 100%; in assay [9], 90%. The mortality at 100 g/ha in assay [1] and in [2] was 100% each time. In assay [5], this compound had a mortality at 500 g/ha of 100%. Moreover, in [8], the mortality at 100 ppm amounted to 100%. In assay [3], the pest or weed control at 4 µg/tick amounted to 100%. Moreover, the pest or weed control at 20 µg/tick in assay [3] was 100%. In addition, the pest or weed control at 160 µg/disc, 500 g/ha in assay [4] is 100%.
Take `Cc1nc([C@H](C)NC(=O)c2cc(OC(F)(F)F)cc(C(C)(C)C#N)c2)n(-c2ncc(C#N)s2)n1` [Example I-51]: the mortality at 500 g/ha in assay [1] and in assay [2] was 100% in each case. Besides, the mortality at 100 g/ha in assay [5] stood at 100%. Also, the pest or weed control at 32 µg/disc, 100 g/ha in assay [4] was determined as 100%.
As to `C[C@H](NC(=O)c1cc(OC(F)(F)F)cc(C(C)(C)C#N)c1)c1ncnn1-c1cc(C#N)ncn1` [Example I-66], the mortality at 500 g/ha in assay [1] and in assay [2] was 100% each time. Further, the mortality at 100 g/ha in assay [5] and in assay [10] was 100% each time. The pest or weed control at 32 µg/disc, 100 g/ha in [4] stood at 100%.

These data come from patent US12653190B2, “Heteroaryl-triazole compounds as pesticides” (Bayer Aktiengesellschaft, priority 2020, dated 2026).
